From ChEMBL document CHEMBL3045195, “Comparison of the activity of non-steroidal ecdysone agonists between dipteran and lepidopteran insects, using cell-based EcR reporter assays” (Pest Manag Sci, 2010)
The source made the active and inactive calls. The rule behind the calls is not given here.

What was measured:
[1] = target: T1, Ecdysone receptor (Drosophila melanogaster) (UniProt P34021+P20153); experiment: Agonist activity at ecdysone receptor in Drosophila melanogaster S2 cells at 100 uM after 24 hr by luciferase reporter gene assay relative to 20-hydroxyecdysone; assay type: cell-based
[2] = target: T1, Ecdysone receptor (Drosophila melanogaster); experiment: Agonist activity at ecdysone receptor in Drosophila melanogaster Kc cells at 10 uM after 24 hr by luciferase reporter gene assay relative to 20-hydroxyecdysone
Ecdysone receptor [3] = target: T2, Ecdysone receptor (Drosophila melanogaster, UniProt P20153+P34021); experiment: (§1) Agonist activity at ecdysone receptor in Drosophila melanogaster Kc cells after 24 hr by luciferase reporter gene assay
T2 sequence (P34021 whole entry): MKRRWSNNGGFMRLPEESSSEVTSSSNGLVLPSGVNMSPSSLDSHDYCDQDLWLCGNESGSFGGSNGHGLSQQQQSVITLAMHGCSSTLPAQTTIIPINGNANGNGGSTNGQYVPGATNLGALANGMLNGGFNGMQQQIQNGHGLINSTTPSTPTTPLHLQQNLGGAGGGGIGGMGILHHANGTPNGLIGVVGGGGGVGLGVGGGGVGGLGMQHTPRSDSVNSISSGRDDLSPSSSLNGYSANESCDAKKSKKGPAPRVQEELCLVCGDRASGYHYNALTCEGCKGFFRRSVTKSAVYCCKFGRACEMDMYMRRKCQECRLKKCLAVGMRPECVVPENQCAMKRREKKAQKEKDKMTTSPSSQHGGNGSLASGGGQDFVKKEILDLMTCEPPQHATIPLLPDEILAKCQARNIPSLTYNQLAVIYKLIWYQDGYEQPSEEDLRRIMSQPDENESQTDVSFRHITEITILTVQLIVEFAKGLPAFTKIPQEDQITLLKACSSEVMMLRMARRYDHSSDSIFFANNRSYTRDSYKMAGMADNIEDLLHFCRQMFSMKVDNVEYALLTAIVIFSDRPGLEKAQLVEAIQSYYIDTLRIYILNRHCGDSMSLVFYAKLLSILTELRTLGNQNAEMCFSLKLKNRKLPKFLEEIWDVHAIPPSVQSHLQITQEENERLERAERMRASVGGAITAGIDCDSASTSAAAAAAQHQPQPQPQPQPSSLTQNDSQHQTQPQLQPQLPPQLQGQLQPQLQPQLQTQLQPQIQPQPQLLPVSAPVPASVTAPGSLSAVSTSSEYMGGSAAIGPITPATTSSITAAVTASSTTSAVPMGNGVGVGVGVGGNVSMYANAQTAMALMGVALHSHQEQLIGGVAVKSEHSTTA
T2 sequence (P20153 whole entry): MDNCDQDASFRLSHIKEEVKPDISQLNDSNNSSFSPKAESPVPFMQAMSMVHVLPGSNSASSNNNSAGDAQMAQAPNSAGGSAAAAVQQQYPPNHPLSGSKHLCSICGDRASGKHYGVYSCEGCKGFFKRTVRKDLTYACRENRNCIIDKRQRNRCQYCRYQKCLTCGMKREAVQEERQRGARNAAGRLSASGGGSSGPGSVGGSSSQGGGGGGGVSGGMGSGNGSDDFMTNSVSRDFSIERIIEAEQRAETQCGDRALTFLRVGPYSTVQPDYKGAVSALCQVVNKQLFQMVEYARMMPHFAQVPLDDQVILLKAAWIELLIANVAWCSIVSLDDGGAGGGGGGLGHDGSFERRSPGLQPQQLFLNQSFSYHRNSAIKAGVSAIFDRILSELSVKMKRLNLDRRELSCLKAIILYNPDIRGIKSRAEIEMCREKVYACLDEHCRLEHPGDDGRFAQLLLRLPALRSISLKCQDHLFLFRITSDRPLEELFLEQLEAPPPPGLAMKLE

[4] = target: T1, Ecdysone receptor (Drosophila melanogaster); experiment: Agonist activity at ecdysone receptor in Drosophila melanogaster S2 cells at 5 uM after 24 hr by luciferase reporter gene assay relative to 20-hydroxyecdysone; assay type: cell-based
Ecdysone receptor [5] = target: T2, Ecdysone receptor; experiment: Agonist activity at ecdysone receptor in Drosophila melanogaster S2 cells after 24 hr by luciferase reporter gene assay; assay type: cell-based
Ecdysone receptor [6] = target: T3, Ecdysone receptor (Bombyx mori, UniProt P49881); experiment: (§2) Agonist activity at ecdysone receptor in Bombyx mori Bm5 cells after 24 hr by luciferase reporter gene assay; assay type: cell-based
T3 sequence (P49881 whole entry): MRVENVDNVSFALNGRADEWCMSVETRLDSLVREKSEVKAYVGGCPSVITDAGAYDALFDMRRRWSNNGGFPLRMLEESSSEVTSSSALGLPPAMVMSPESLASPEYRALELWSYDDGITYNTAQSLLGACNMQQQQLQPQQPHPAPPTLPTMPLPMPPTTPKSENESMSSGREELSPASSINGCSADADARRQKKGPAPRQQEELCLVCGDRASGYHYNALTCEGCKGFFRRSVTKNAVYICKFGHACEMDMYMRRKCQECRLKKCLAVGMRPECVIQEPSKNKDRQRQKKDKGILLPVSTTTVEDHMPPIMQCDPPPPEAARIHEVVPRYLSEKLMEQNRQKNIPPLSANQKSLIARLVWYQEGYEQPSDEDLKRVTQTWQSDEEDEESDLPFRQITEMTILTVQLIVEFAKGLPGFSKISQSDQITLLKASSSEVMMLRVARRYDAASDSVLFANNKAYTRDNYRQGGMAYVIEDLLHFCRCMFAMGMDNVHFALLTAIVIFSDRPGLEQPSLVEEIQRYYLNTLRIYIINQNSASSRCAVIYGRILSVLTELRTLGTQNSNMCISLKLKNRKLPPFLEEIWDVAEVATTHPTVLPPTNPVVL

[7] = target: T1, Ecdysone receptor (Drosophila melanogaster); experiment: Agonist activity at ecdysone receptor in Drosophila melanogaster Kc cells at 100 uM after 24 hr by luciferase reporter gene assay relative to 20-hydroxyecdysone
[8] = target: T1, Ecdysone receptor (Drosophila melanogaster); experiment: as §1
[9] = target: T1, Ecdysone receptor (Drosophila melanogaster); experiment: Agonist activity at ecdysone receptor in Drosophila melanogaster S2 cells at 50 uM after 24 hr by luciferase reporter gene assay relative to 20-hydroxyecdysone; assay type: cell-based
[10] = target: T1, Ecdysone receptor (Drosophila melanogaster); experiment: Agonist activity at ecdysone receptor in Drosophila melanogaster S2 cells at 10 uM after 24 hr by luciferase reporter gene assay relative to 20-hydroxyecdysone; assay type: cell-based
[11] = target: Ecdysone receptor (Aedes aegypti) (UniProt P49880+Q9GSG8); experiment: Agonist activity at Aedes aegypti ecdysone receptor expressed in mammalian cells by reporter gene assay relative to control; assay type: cell-based
Ecdysone receptor [12] = target: T4, Ecdysone receptor (Aedes aegypti, UniProt P49880+Q9GSG8); experiment: Agonist activity at Aedes aegypti ecdysone receptor expressed in mammalian cells by reporter gene assay; assay type: cell-based
T4 sequence (P49880 whole entry): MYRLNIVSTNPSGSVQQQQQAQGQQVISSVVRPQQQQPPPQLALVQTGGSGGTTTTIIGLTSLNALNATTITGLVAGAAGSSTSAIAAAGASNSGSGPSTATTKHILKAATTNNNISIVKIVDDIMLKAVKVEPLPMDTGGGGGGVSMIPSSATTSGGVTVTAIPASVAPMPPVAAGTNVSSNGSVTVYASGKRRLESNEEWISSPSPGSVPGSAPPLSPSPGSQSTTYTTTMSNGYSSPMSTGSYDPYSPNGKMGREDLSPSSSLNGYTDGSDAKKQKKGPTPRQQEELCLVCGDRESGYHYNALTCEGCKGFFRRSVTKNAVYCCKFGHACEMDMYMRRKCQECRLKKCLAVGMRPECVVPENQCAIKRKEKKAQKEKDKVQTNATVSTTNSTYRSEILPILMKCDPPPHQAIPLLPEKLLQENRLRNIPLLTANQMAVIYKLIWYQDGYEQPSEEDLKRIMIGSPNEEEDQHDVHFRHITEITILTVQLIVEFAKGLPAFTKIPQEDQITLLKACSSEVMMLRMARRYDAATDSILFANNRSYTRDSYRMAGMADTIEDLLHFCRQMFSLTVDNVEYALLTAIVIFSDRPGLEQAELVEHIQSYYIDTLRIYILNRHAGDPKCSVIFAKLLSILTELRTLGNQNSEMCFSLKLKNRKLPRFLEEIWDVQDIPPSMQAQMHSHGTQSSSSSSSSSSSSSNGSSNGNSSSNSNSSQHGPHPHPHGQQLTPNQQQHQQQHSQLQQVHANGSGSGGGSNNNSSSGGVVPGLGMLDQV
T4 sequence (Q9GSG8 whole entry): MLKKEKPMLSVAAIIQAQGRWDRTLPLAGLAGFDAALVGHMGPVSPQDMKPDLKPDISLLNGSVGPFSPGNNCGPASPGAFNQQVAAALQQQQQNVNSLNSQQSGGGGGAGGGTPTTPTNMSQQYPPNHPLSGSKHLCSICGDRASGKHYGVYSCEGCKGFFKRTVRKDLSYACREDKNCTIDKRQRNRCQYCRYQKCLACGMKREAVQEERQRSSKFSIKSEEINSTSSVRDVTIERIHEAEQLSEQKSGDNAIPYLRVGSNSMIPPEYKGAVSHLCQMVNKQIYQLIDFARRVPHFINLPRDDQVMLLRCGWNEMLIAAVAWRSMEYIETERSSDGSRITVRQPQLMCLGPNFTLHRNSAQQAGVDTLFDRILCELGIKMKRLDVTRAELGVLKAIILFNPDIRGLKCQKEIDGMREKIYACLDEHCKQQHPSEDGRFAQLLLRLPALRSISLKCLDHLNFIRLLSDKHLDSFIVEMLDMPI

[13] = target: T5, Ecdysone receptor (Bombyx mori) (UniProt P49881); experiment: as §2; assay type: cell-based
T5 sequence (whole entry): T3 sequence (P49881 whole entry)

[14] = target: T1, Ecdysone receptor (Drosophila melanogaster); experiment: Agonist activity at ecdysone receptor in Drosophila melanogaster S2 cells treated with ouabain for 24 hr prior to compound addition measured after 24 hr by luciferase reporter gene assay; assay type: cell-based
[15] = Cytotoxicity against Drosophila melanogaster S2 cells at 10 to 100 uM after 24 hr by CellTiter assay; assay type: cell-based; details: s2, 24 h
[16] = target: T1, Ecdysone receptor (Drosophila melanogaster); experiment: Agonist activity at ecdysone receptor in Drosophila melanogaster S2 cells after 24 hr by luciferase reporter gene assay in presence of ouabain; assay type: cell-based
[17] = target: T1, Ecdysone receptor (Drosophila melanogaster); experiment: Agonist activity at ecdysone receptor in Drosophila melanogaster S2 cells at 1.33 uM after 24 hr by luciferase reporter gene assay relative to 20-hydroxyecdysone; assay type: cell-based

Q: Which results are given for `CC(=O)c1ccc(C(=O)NN(C(=O)c2ccccc2Cl)C(C)(C)C)cc1`?
A: Efficacy [1]: 7%; Efficacy [2]: 3%; EC50 (Ecdysone receptor [3]): > 100 µM

Q: Which results are given for `CC(C)(C)N(NC(=O)c1ccc(I)cc1)C(=O)c1ccccc1Cl`?
A: Efficacy [4]: 53%; EC50 (Ecdysone receptor [5]): 7.08 µM; EC50 (Ecdysone receptor [6]): 0.00759 µM

Q: For `Cc1ccc(C(=O)NN(C(=O)c2ccccc2Cl)C(C)(C)C)c(C)c1`, which Efficacy [1] is on record?
A: 43%

Q: What about the EC50 (Ecdysone receptor [5]) of the same compound?
A: 129 µM

Q: What about the Efficacy [7] of the same compound?
A: 29%

Q: And the pEC50 [8]?
A: inactive

Q: What about the EC50 (Ecdysone receptor [6]) of the same compound?
A: 0.162 µM

Q: Which Efficacy [9] does the source give for `CCOc1ccccc1C(=O)N(NC(=O)c1ccc(CC)cc1)C(C)(C)C` here?
A: 2%

Q: And the EC50 (Ecdysone receptor [5])?
A: > 50.1 µM

Q: Which Efficacy [10] does the source give for `Cc1ccc(NC2CC(C)N(C(=O)c3ccc(Cl)cc3)c3ccc(C)cc32)cc1` (centres undefined) here?
A: 9%

Q: And the EC50 (Ecdysone receptor [5])?
A: > 10 µM

Q: What about the Efficacy [11] of the same compound?
A: 39%

Q: And the EC50 (Ecdysone receptor [12])?
A: 2.14 µM

Q: And the pEC50 [13]?
A: inactive

Q: For `CC(C)(C)N(NC(=O)c1ccc(Br)cc1)C(=O)c1ccccc1Cl`, which Efficacy [4] is on record?
A: 68%

Q: What about the EC50 (Ecdysone receptor [5]) of the same compound?
A: 2.82 µM

Q: And the Efficacy [2]?
A: 56%

Q: What about the EC50 (Ecdysone receptor [3]) of the same compound?
A: 6.92 µM

Q: What about the EC50 (Ecdysone receptor [6]) of the same compound?
A: 0.0339 µM

Q: Which results are given for `COc1cccc(C(=O)NN(C(=O)c2cc(C)cc(C)c2)C(C)(C)C)c1C` [METHOXYFENOZIDE]?
A: Efficacy [1]: 66%; EC50 (Ecdysone receptor [5]): 16.6 µM; Activity [14]: Active; Activity [15]: Non-toxic; EC50 (Ecdysone receptor [6]): 0.00603 µM; Activity [16]: Active

Q: What does the source list for `Cc1ccc(NC2CC(C)N(C(=O)c3ccc(C)cc3)c3ccc(C)cc32)cc1` (centres undefined)?
A: Efficacy [10]: 11%; EC50 (Ecdysone receptor [5]): > 10 µM; Efficacy [11]: 26%; EC50 (Ecdysone receptor [12]): 5.01 µM; pEC50 [13]: inactive

Q: Which results are given for `Cc1cc(C)cc(C(=O)C2(NC(=O)c3ccc4c(c3C)CCCO4)CCCCC2)c1`?
A: EC50 (Ecdysone receptor [5]): > 1.32 µM; Efficacy [17]: 37%

Q: Which Efficacy [1] does the source give for `CC(C)(C)N(NC(=O)c1c(F)cccc1F)C(=O)c1ccccc1Cl` here?
A: 23%

Q: And the Efficacy [7]?
A: 35%

Q: And the EC50 (Ecdysone receptor [3])?
A: > 100 µM
